From patent US9248202B2, “Two-photon probe for detecting copper(II) ion and quantitative estimation of copper(II) ion in human tissue using the same” (Korea University Research and Business Foundation, priority 2014, dated 2016) come the findings set out here.

The nature of series [1]: Two-photon action cross section. Particulars: EtOH/HEPES (9/1 v/v, pH 7.0). The series is classed as physicochemical. The method, then:
Referring to FIG. 4(a), the Φδmax value of ACCu2 in EtOH/HEPES (9/1 v/v, pH 7.0) buffer was 32 GM at 880 nm, while those for FL and IR were 32 GM at 880 nm and 46 GM at 750 nm. The lower Φδmax value of ACCu2 at 750 nm than that of IR is because of decreased fluorescence resonance energy transfer (FRET) from IR to FL and it allows to obtain bright TPM images of cells and ^.tissues labeled with ACCu2.
The two-photon cross section (δ) was determined by the fe tosecond (fs) fluorescence measurement technique described in the literature (S. K. Lee, W. J. Yang, J. J. Choi, C. H. Kim, S.-J. Jeon, B. R. Cho, Org. Lett 2005, 7, 323-326.), ACCu2 was dissolved in 20 mM HEPES buffer (pH 7.0) to a concentration of 3.0×10^−6 M and then two-photon induced fluorescence intensity was measured at 740-940 nm using rhodamine 6G as a reference, whose two-photon property has been well characterized. The intensities of two-photon induced fluorescence of the reference and the sample were determined at the same excitation wavelength.
The two-photon cross section can be calculated from equation (3). δ=δr(SsΦrΦrcr)/(SrΦsΦscs) Equation (3)
wherein s and r stand for the sample, i.e., ACCu2, and the reference, respectively. S denotes the intensity of the signal collected using a CCD detector, Φ is the fluorescence quantum yield, Φ is the overall fluorescence collection efficiency of the experimental apparatus, c is the number density of molecules in solution, and δr is the two-photon cross section of the reference molecule.

Series [2] is described as follows: Absorption and fluorescence spectra, quantum yield, energy transfer. It counts as physicochemical. To be noted: for φ (fluorescence quantum yield): uncertainty ± 15%; for λmax^abs: one-photon absorption; for λmax^t1: one-photon emission. The method, then: Absorption spectra were recorded using the Hewlett-Packard 8453 diode array spectrophotometer and fluorescence spectra were measured using the Amico-Bowman series 2 luminescence spectrometer a 1 cm standard quartz cell. The fluorescence quantum yield was determined using coumarin 307 and rhodamine B as references according to the literature method (J. N. Demas, G. A. Crosby, J. Phys. Chem. 1971, 75, 991).
(hereinafter, ‘ACCu2’), a compound of [Chemical Formula 12] (hereinafter, ‘FL’) and a compound of [Chemical Formula 13] (hereinafter, ‘IR’) in 1,4-dioxane, DMF, ethanol, EtOH/HEPES (9:1) and HEPES buffer ([HEPES]=20 mM, pH 7.0). Excitation wavelength was 420 nm. The solubility of ACCu2 in HEPES buffer ([HEPES]=20 mM, pH 7.0) as determined by the fluorescence method described in the literature (Kim, H. M.; Choo, H. J.; Jung, S. Y.; Ko, Y. G.; Park, W. H.; Jeon, S. J.; Kim, C. H.; Joo, T. H.; Cho, B. R. Chem Bio Chem 2007, 8, 553) was 8.0 μM, which was sufficient to stain cells.
To assess the origin of the spectral changes, the energy transfer efficiency (ETE) was calculated using Equation (1). The ETE was 93.4%.
In Equation (1), AIR and AIR′ are the absorbances of the IR moiety and IR, respectively, and FIR and FIR′ are the emission intensities of the IR moiety and IR, respectively, upon excitation at 373 nm.
The antenna effect in the one-photon (OP) (or TP) mode was 3.0 (or 3.1). The antenna effect was calculated by dividing the area of emission from the FL moiety upon excitation of the IR moiety at 373 nm (or 750 nm in the TP mode) by that collected from the direct excitation of FL at 461 nm (or 880 nm in the […]).

In the case of `CN(C)c1ccc2cc3cc(C(=O)NCc4ccc(C(=O)O)cn4)c(=O)oc3cc2c1` [FL], in series [1] (at 880 nm), the “Φδmax (two-photon action cross section)” value is 32 GM. The “φ (fluorescence quantum yield)” value in series [2] (1,4-Dioxane (0.164)) was 0.77; in series [2] (DMF (0.386)) it was 0.29; in series [2] (EtOH (0.654)) it was 0.25; in series [2] (EtOH/HEPES (9:1)) it was 0.15; in series [2] (HEPES buffer 20 mM, pH 7.0), 0.0045. Besides, the “λmax^abs” value in series [2] (1,4-Dioxane (0.164)) is given as 438 nm; in series [2] (DMF (0.386)) it was 454 nm; in series [2] (EtOH (0.654)), 457 nm; in series [2] (EtOH/HEPES (9:1)), 461 nm; in series [2] (HEPES buffer 20 mM, pH 7.0), 452 nm. In addition, the “λmax^t1” value came out at 536 nm in series [2] (1,4-Dioxane (0.164)); 576 nm in series [2] (DMF (0.386)); 582 nm in series [2] (EtOH (0.654)); 587 nm in series [2] (EtOH/HEPES (9:1)); 590 nm in series [2] (HEPES buffer 20 mM, pH 7.0).
As for `COCCOCCOCCOc1ccc2c(ccc3cc(C(=O)N4CCNCC4)c(=O)oc32)c1` [IR], the “Φδmax (two-photon action cross section)” value in series [1] (at 750 nm) is on record as 46 GM. Further, the “φ (fluorescence quantum yield)” value in series [2] (1,4-Dioxane (0.164)) was found to be 0.080; in series [2] (DMF (0.386)), 0.070; in series [2] (EtOH (0.654)), 0.18; in series [2] (EtOH/HEPES (9:1)), 0.62; in series [2] (HEPES buffer 20 mM, pH 7.0), 1.00. Moreover, the “λmax^abs” value in series [2] (1,4-Dioxane (0.164)) came to 367 nm; in series [2] (DMF (0.386)) it was 366 nm; in series [2] (EtOH (0.654)), 372 nm; in series [2] (EtOH/HEPES (9:1)), 373 nm; in series [2] (HEPES buffer 20 mM, pH 7.0), 375 nm. Besides, the “λmax^t1” value in series [2] (1,4-Dioxane (0.164)) turned out to be 445 nm; in series [2] (DMF (0.386)), 448 nm; in series [2] (EtOH (0.654)), 451 nm; in series [2] (EtOH/HEPES (9:1)), 460 nm; in series [2] (HEPES buffer 20 mM, pH 7.0), 468 nm.
